Patent publication US12084472B2 (Ardelyx, Inc., priority 2015, dated 2024)

Molecular target: T1, human TGR5 (Homo sapiens, UniProt Q8TDU6)
T1 construct: expressed in transfected cells; host or cells: HEK293
T1 sequence (Q8TDU6 1-330): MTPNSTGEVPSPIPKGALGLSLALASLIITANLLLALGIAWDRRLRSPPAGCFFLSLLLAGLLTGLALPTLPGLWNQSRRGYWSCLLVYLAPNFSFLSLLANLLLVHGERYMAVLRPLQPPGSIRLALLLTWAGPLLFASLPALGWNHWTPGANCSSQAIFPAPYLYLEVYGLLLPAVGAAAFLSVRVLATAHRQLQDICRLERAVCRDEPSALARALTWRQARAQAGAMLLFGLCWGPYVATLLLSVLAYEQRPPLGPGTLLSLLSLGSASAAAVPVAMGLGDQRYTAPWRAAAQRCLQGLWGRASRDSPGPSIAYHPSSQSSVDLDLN
Assay: Cell-based TGR5 assay (cAMP generation, HTRF)
Details: HEK293 cells stably transfected with human TGR5; cAMP by HTRF; 30 minutes at 37° C.; read-out: pEC50 Human TGR5 (converted)
Outline: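 First, compounds in 3-fold serial dilution were placed in HBSS with 10 mM HEPES pH 7.4 and 0.5 mM IBMX. Next, human TGR5-expressing HEK293 cells were added and incubated 30 min at 37° C. Finally, cAMP was detected by HTRF and pEC50 derived by logistic fitting.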

Compared with `O=C([C@@H](O)[C@@H](O)[C@H](O)[C@@H](O)CO)N(CCCSc1ccc(Cl)c(CNC2(c3cnccc3-c3ccccc3OC3CC3)CC2)c1)CCN1CCS(=O)(=O)CC1` [Compound I-530, (2S,3S,4R,5S)-N-[3-({4-chloro-3-[({1-[4-(2-cyclopropoxyphenyl)pyridin-3-yl]cyclopropyl)amino)methyl]phenyl}sulfanyl)propyl]-N-[2-(1,1-dioxo-1λ^6,4-thiomorpholin-4-yl)ethyl]-2,3,4,5,6-pentahydroxyhexanamide], `O=C([C@@H](O)[C@@H](O)[C@H](O)[C@@H](O)CO)N(CCCCCO)CCCCCSc1ccc(Cl)c(CNC2(c3cnccc3-c3ccccc3OC3CC3)CC2)c1` [Compound I-601, (2S,3S,4R,5S)-N-[5-({4-chloro-3-[({1-[4-(2-cyclopropoxyphenyl)pyridin-3-yl]cyclopropyl}amino)methyl]phenyl}sulfanyl)pentyl]-2,3,4,5,6-pentahydroxy-N-(5-hydroxypentyl)hexanamide] is lower in EC50: 126 to 1000 nM for the first, < 100 nM for the second.

`CC(C)N(CCCCNC(=O)NC[C@H](O)[C@@H](O)[C@H](O)[C@H](O)CO)S(=O)(=O)c1cc(COC2(c3cnccc3-c3ccccc3OC3CC3)CC2)c(Cl)cc1F` [Compound I-764, 4-chloro-5-((1-(4-(2-cyclopropoxyphenyl)pyridin-3-yl)cyclopropoxy)methyl)-2-fluoro-N-isopropyl-N-(4-(3-((2S,3R,4R,5R)-2,3,4,5,6-pentahydroxyhexyl)ureido)butyl) benzenesulfonamide] and `O=C(NCCOCCNS(=O)(=O)c1ccc(Cl)c(COC2(c3cnccc3-c3ccccc3OC3CC3)CC2)c1)NC[C@H](O)[C@@H](O)[C@H](O)[C@H](O)CO` (stereo in doubt) [Compound I-403, 1-(2-{2-[4-chloro-3-({1-[4-(2-cyclopropoxyphenyl)pyridin-3-yl]cyclopropoxy}methyl)benzenesulfonamido]ethoxy}ethyl)-3-[(2S,3R,4R,5R)-2,3,4,5,6-pentahydroxyhexyl]urea] cannot be ordered by EC50: < 100 nM for the first, < 100 nM for the second.

`Cc1ccc(SCCCN(CCCS(C)(=O)=O)C(=O)[C@@H](O)[C@@H](O)[C@H](O)[C@@H](O)CO)cc1COC1(c2cnccc2-c2ccccc2OC2CC2)CC1` [Compound I-537, (2S,3S,4R,5S)-N-(3-{[3-({1-[4-(2-cyclopropoxyphenyl)pyridin-3-yl]cyclopropoxy}methyl)-4-methylphenyl]sulfanyl}propyl)-2,3,4,5,6-pentahydroxy-N-(3-methanesulfonylpropyl) hexanamide] and `Cc1ccc(SCCCN(CCCCO)C(=O)[C@@H](O)[C@@H](O)[C@H](O)[C@@H](O)CO)cc1COC1(c2cnccc2-c2ccccc2OC2CC2)CC1` [Compound I-539, (2S,3S,4R,5S)-N-(3-{[3-({1-[4-(2-cyclopropoxyphenyl)pyridin-3-yl]cyclopropoxy}methyl)-4-methylphenyl]sulfanyl}propyl)-2,3,4,5,6-pentahydroxy-N-(4-hydroxybutyl)hexanamide] fall in the same range of EC50: 126 to 1000 nM for the first, 126 to 1000 nM for the second.

`CC(CCCC(=O)N(C[C@@H](O)[C@H](O)[C@@H](O)[C@@H](O)CO)[C@H]1CC[C@@H](O)CC1)c1ccc(Cl)c(CNC2(c3cnccc3-c3ccccc3OC3CC3)CC2)c1` (stereo partly drawn) [Compound I-343, 5-{4-chloro-3-[({1-[4-(2-cyclopropoxyphenyl)pyridin-3-yl]cyclopropyl}amino)methyl]phenyl}-N-[(2R,3S,4S,5S)-2,3,4,5,6-pentahydroxyhexyl]-N-[(1s,4s)-4-hydroxycyclohexyl]hexanamide] and `CN(C[C@H](O)[C@@H](O)[C@H](O)[C@H](O)CO)C(=O)CCSc1ccc(Cl)c(CNC2(c3cnccc3-c3ccccc3OC3CC3)CC2)c1` [Compound I-676, 3-({4-chloro-3-[({1-[4-(2-cyclopropoxyphenyl)pyridin-3-yl]cyclopropyl}amino)methyl]phenyl}sulfanyl)-N-methyl-N-[(2S,3R,4R,5R)-2,3,4,5,6-pentahydroxyhexyl]propanamide] cannot be ordered by EC50: < 100 nM for the first, < 100 nM for the second.

`Clc1ccc(Cl)c(CNC2(c3cnccc3-c3ccccc3OC3CC3)CC2)c1` [Compound I-1, 1-[4-(2-cyclopropoxyphenyl)pyridin-3-yl]-N-[(2,5-dichlorophenyl)methyl]cyclopropan-1-amine] and `C[C@H](CCCN)c1ccc(Cl)c(CNC2(c3cnccc3-c3ccccc3OC3CC3)CC2)c1` (single isomer, unassigned) [Compound I-251] cannot be ordered by EC50: < 100 nM for the first, < 100 nM for the second.

Compared with `COCCC(=O)N(CCCCc1cc(Cl)c(COC2(c3cnccc3-c3ccccc3OC3CC3)CC2)cc1Cl)C[C@H](O)[C@@H](O)[C@H](O)[C@H](O)CO` [Compound I-75, N-(4-(2,5-dichloro-4-((1-(4-(2-cyclopropoxyphenyl)pyridin-3-yl)cyclopropoxy)methyl)phenyl)butyl)-3-methoxy-N-((2S,3R,4R,5R)-2,3,4,5,6-pentahydroxyhexyl)propanamide], `CN(C)CCN(C[C@H](O)[C@@H](O)[C@H](O)[C@H](O)CO)C(=O)CCCCc1cc(Cl)c(COC2(c3cnccc3-c3ccccc3OC3CC3)CC2)cc1Cl` [Compound I-207, 5-[2,5-dichloro-4-({1-[4-(2-cyclopropoxyphenyl)pyridin-3-yl]cyclopropoxy}methyl)phenyl)-N-[2-(dimethylamino)ethyl]-N-[(2S,3R,4R,5R)-2,3,4,5,6-pentahydroxyhexyl]pentanamide] is higher in EC50: < 100 nM for the first, 126 to 1000 nM for the second.

`C[C@@H](CCCCN)c1ccc(Cl)c(COC2(c3cnccc3-c3ccccc3OC3CC3)CC2)c1` (single isomer, unassigned) [Compound I-246] and `CCNC(=O)[C@@H](N)CCCCNS(=O)(=O)c1ccc(COC2(c3cnccc3-c3ccccc3OC3CC3)CC2)c(Cl)c1` [Compound I-486, (S)-2-amino-6-(3-chloro-4-((1-(4-(2-cyclopropoxyphenyl)pyridin-3-yl)cyclopropoxy)methyl)phenylsulfonamido)-N-ethylhexanamide] fall in the same range of EC50: 126 to 1000 nM for the first, 126 to 1000 nM for the second.

`CN(CCO[C@@H]1O[C@H](CO)[C@@H](O)[C@H](O)[C@H]1O)C(=O)CCCCc1cc(Cl)c(COC2(c3cnccc3-c3ccccc3OC3CC3)CC2)cc1Cl` [Compound I-121, 5-(2,5-dichloro-4-((1-(4-(2-cyclopropoxyphenyl)pyridin-3-yl)cyclopropoxy)methyl)phenyl)-N-methyl-N-(2-(((2R,3R,4S,5S,6R)-3,4,5-trihydroxy-6-(hydroxymethyl)tetrahydro-2H-pyran-2-yl)oxy)ethyl)pentanamide] and `O=C(O)CCN(C[C@H](O)[C@@H](O)[C@H](O)[C@H](O)CO)C(=O)CCCCc1cc(Cl)c(COC2(c3cnccc3-c3ccccc3OC3CC3)CC2)cc1Cl` [Compound I-183, 3-{5-[2,5-dichloro-4-({1-[4-(2-cyclopropoxyphenyl)pyridin-3-yl]cyclopropoxy}methyl)phenyl]-N-[(2S,3R,4R,5R)-2,3,4,5,6-pentahydroxyhexyl]pentanamido}propanoic acid] cannot be ordered by EC50: < 100 nM for the first, < 100 nM for the second.

First: CN(C[C@H](O)[C@@H](O)[C@H](O)[C@H](O)CO)C(=O)CN1CCN(C(=O)CCCCc2cc(Cl)c(COC3(c4cnccc4-c4ccccc4OC4CC4)CC3)cc2Cl)CC1 [Compound I-89, 2-(4-(5-(2,5-dichloro-4-((1-(4-(2-cyclopropoxyphenyl)pyridin-3-yl)cyclopropoxy)methyl)phenyl)pentanoyl)piperazin-1-yl)-N-methyl-N-((2S,3R,4R,5R)-2,3,4,5,6-pentahydroxyhexyl)acetamide]
Second: O=C(CCCCc1cc(Cl)c(CNC2(c3cnccc3-c3ccccc3OC3CC3)CC2)cc1Cl)NC[C@H](O)[C@@H](O)[C@H](O)[C@H](O)CO [Compound I-62, 5-[2,5-dichloro-4-[([1-[4-(2-cyclopropoxyphenyl)pyridin-3-yl]cyclopropyl]amino)methyl]phenyl]-N-[(2S,3R,4R,5R)-2,3,4,5,6-pentahydroxyhexyl]pentanamide]
The EC50 of the first is lower: < 100 nM for the first, 126 to 1000 nM for the second.

Compared with `Cc1ccc(SCCCN(CCCCO)C(=O)[C@@H](O)[C@@H](O)[C@H](O)[C@@H](O)CO)cc1CNC1(c2cnccc2-c2ccccc2OC2CC2)CC1` [Compound I-546, (2S,3S,4R,5S)-N-[3-({3-[({1-[4-(2-cyclopropoxyphenyl)pyridin-3-yl]cyclopropyl}amino)methyl]-4-methylphenyl}sulfanyl)propyl]-2,3,4,5,6-pentahydroxy-N-(4-hydroxybutyl) hexanamide], `O=C(NCCCCSc1ccc(Cl)c(COC2(c3cnccc3-c3ccccc3OC3CC3)CC2)c1)N[C@@H](CO)[C@@H](O)[C@H](O)[C@H](O)CO` [Compound I-628, 1-(4-{[4-chloro-3-({1-[4-(2-cyclopropoxyphenyl)pyridin-3-yl]cyclopropoxy}methyl)phenyl]sulfanyl}butyl)-3-[(2S,3R,4S,5R)-1,3,4,5,6-pentahydroxyhexan-2-yl]urea] is lower in EC50: 126 to 1000 nM for the first, < 100 nM for the second.

First: O=C(NCCCCNS(=O)(=O)c1ccc(Cl)c(COC2(c3cnccc3-c3ccccc3OC3CC3)CC2)c1)N[C@@H](CO)[C@@H](O)[C@H](O)[C@H](O)CO (stereo in doubt) [Compound I-410, 1-{4-[4-chloro-3-({1-[4-(2-cyclopropoxyphenyl)pyridin-3-yl]cyclopropoxy}methyl)benzenesulfonamido]butyl}-3-[(2S,3R,4S,5R)-1,3,4,5,6-pentahydroxyhexan-2-yl]urea]
Second: CNC(=O)CN(C[C@H](O)[C@@H](O)[C@H](O)[C@H](O)CO)C(=O)CCCSc1ccc(Cl)c(COC2(c3cnccc3-c3ccccc3OC3CC3)CC2)c1 [Compound I-670, 4-{[4-chloro-3-({1-[4-(2-cyclopropoxyphenyl)pyridin-3-yl]cyclopropoxy}methyl)phenyl]sulfanyl}-N-[(methylcarbamoyl)methyl]-N-[(2S,3R,4R,5R)-2,3,4,5,6-pentahydroxyhexyl]butanamide]
The EC50 of the first is lower: < 100 nM for the first, 126 to 1000 nM for the second.
